# Laboratory results taken from ChEMBL document CHEMBL3045846, “Experimental validation and docking studies of flavone derivatives on aldose reductase involved in diabetic retinopathy, neuropathy, and nephropathy” (Med Chem Res, 2011).
# Columns and labels:
# [1] = molecular target: Aldo-keto reductase family 1 member B1 (Homo sapiens, UniProt P15121); assay: Inhibition of aldose reductase (unknown origin)
# [2] = molecular target: Aldo-keto reductase family 1 member B1 (Bos taurus) (UniProt P16116); assay: Inhibition of Bos taurus (bovine) aldose reductase isolated from lens using DL-glyceraldehyde as substrate at 1.8 mM by UV-Vis spectrophotometric analysis
# [3] = molecular target: Aldo-keto reductase family 1 member B1 (Rattus norvegicus, UniProt P07943); assay: Inhibition of Rattus norvegicus (rat) aldose reductase isolated from lens using DL-glyceraldehyde as substrate after 30 min by fluorometric analysis
SMILES,IC50 [1] [µM],inhibition [2] [%],also measured
O=c1cc(-c2ccc(O)c(O)c2)oc2cc(O)c([C@@H]3O[C@H](CO)[C@@H](O)[C@H](O)[C@H]3O)c(O)c12 [ISOORIENTIN],1.91,–,–
COc1cc(-c2cc(=O)c3c(O)cc(O)cc3o2)cc(OC)c1O [TRICIN],2.03,–,–
O=c1cc(-c2ccccc2)oc2c(I)cc(Cl)cc12,–,70,–
O=c1cc(-c2ccc(O)cc2)oc2c([C@@H]3O[C@H](CO)[C@@H](O)[C@H](O)[C@H]3O)c(O)cc(O)c12 [VITEXIN],–,–,IC50 [3]: 2.03 µM
O=C(O)/C=C/c1ccc(O)cc1 [COUMARIC ACID],0.14,–,–
Cc1c(Cl)cc2c(=O)cc(-c3ccc(Cl)cc3Cl)oc2c1I,–,80,–

# More lines, main results first:
IC50 [1] [µM],inhibition [2] [%],SMILES,also measured
–,80,Cc1c(Cl)cc2c(=O)cc(-c3ccccc3)oc2c1I,–
–,80,O=c1cc(-c2ccc(Cl)cc2Cl)oc2c(I)cc(Cl)cc12,–
–,60,O=c1cc(-c2ccccc2Cl)oc2ccccc12,–
